Where “and” joins values, the source holds several entries; their conditions need not be identical. Identical values can stand only once. Toxic doses and inconclusive results are not listed.
Test system: B6C3F1 mice, Lewis lung carcinoma iv, survival T/C
Assay: NCI In Vivo Anticancer Drug Screen. Data for tumor model Lewis Lung Carcinoma (intravenous) in B6C3F1 mice
Conditions: endpoint: median survival time, schedule: Q01DX009 (ip), higher = longer survival
Outline: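 Mice carrying transplanted tumors received test compound; survival in the treated group was divided by that of the vehicle-treated control group to give the T/C value.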

[1] = dose: 0.06 mg/kg/injection, vehicle: suspension in saline
[2] = dose: 0.12 mg/kg/injection, vehicle: suspension in saline
[3] = dose: 0.25 mg/kg/injection, vehicle: suspension in saline
[4] = dose: 0.5 mg/kg/injection, vehicle: suspension in saline
[5] = dose: 1.0 mg/kg/injection, vehicle: suspension in saline
[6] = dose: 6.25 mg/kg/injection, vehicle: saline with Tween-80
[7] = dose: 12.5 mg/kg/injection, vehicle: saline with Tween-80
[8] = dose: 25.0 mg/kg/injection, vehicle: saline with Tween-80
[9] = dose: 50.0 mg/kg/injection, vehicle: saline with Tween-80
[10] = dose: 100.0 mg/kg/injection, vehicle: saline with Tween-80
[11] = dose: 200.0 mg/kg/injection, vehicle: saline with Tween-80
[12] = dose: 3.12 mg/kg/injection, vehicle: saline
[13] = dose: 6.25 mg/kg/injection, vehicle: saline
[14] = dose: 3.12 mg/kg/injection, vehicle: saline with Tween-80
[15] = dose: 100.0 mg/kg/injection, vehicle: saline
[16] = dose: 200.0 mg/kg/injection, vehicle: saline
[17] = dose: 400.0 mg/kg/injection, vehicle: saline
[18] = dose: 800.0 mg/kg/injection, vehicle: saline
[19] = dose: 400.0 mg/kg/injection, vehicle: saline with Tween-80
[20] = dose: 25.0 mg/kg/injection, vehicle: saline
[21] = dose: 50.0 mg/kg/injection, vehicle: saline
[22] = dose: 5.0 mg/kg/injection, vehicle: saline with Tween-80
[23] = dose: 10.0 mg/kg/injection, vehicle: saline with Tween-80
[24] = dose: 0.12 mg/kg/injection, vehicle: saline
[25] = dose: 0.25 mg/kg/injection, vehicle: saline

C1CN1c1nc(N2CC2)nc(N2CC2)n1
T/C [1]: 96 % of control | T/C [2]: 92 % of control | T/C [3]: 101 % of control | T/C [4]: 106 % of control | T/C [5]: 121 % of control

Cc1ccc2c(c1)N=C(Nc1ccccc1)N=S2(C)=O (stereo unspecified)
T/C [6]: 99 % of control | T/C [7]: 92 % of control | T/C [8]: 93 % of control | T/C [9]: 95 % of control | T/C [10]: 108 % of control | T/C [11]: 119 % of control

C[n+]1c(-c2cccc3ccccc23)c2cc(N)ccc2c2ccccc21
T/C [12]: 94 % of control | T/C [13]: 90 % of control

CCc1ccc(C2=C(O)C(=O)C(c3ccc(CC)cc3)=C(O)C2=O)cc1
T/C [14]: 111 % of control | T/C (dose: 6.0 mg/kg/injection, vehicle: saline with Tween-80): 105 % of control | T/C [6]: 111 % of control | T/C (dose: 12.0 mg/kg/injection, vehicle: saline with Tween-80): 103 % of control | T/C [7]: 117 % of control | T/C [8]: 114 % of control and 88 % of control | T/C [9]: 103 % of control | T/C [10]: 101 % of control

Nc1n[nH]c(N)n1
T/C [15]: 109 % of control | T/C [16]: 109 % of control | T/C [17]: 106 % of control | T/C [18]: 115 % of control

FC(F)(F)c1nc2nc(Cl)c(Cl)nc2[nH]1
T/C [6]: 98 % of control | T/C [7]: 106 % of control | T/C [8]: 106 % of control | T/C [9]: 93 % of control

CC(=O)OCC1(C)NC(=O)c2ccccc2O1 (stereo unspecified)
T/C [7]: 114 % of control | T/C [8]: 96 % of control | T/C [9]: 100 % of control | T/C [10]: 104 % of control | T/C [11]: 114 % of control | T/C [19]: 100 % of control

C(=N/NC1=NCCN1)/c1c2ccccc2c(/C=N\NC2=NCCN2)c2ccccc12
T/C [12]: 110 % of control | T/C (dose: 12.5 mg/kg/injection, vehicle: saline): 100 % of control | T/C [20]: 100 % of control

c1csc(C[N+]23CN4CN(CN(C4)C2)C3)c1
T/C (dose: 12.0 mg/kg/injection, vehicle: saline): 100 % of control | T/C [20]: 101 % of control | T/C [21]: 96 % of control | T/C [15]: 96 % of control | T/C [16]: 110 % of control

OCCN1CCN(CC/C=C2/c3ccccc3Sc3ccc(C(F)(F)F)cc32)CC1
T/C (dose: 0.19 mg/kg/injection, vehicle: saline): 114 % of control | T/C (dose: 0.39 mg/kg/injection, vehicle: saline): 101 % of control | T/C (dose: 0.78 mg/kg/injection, vehicle: saline): 102 % of control | T/C (dose: 1.56 mg/kg/injection, vehicle: saline): 98 % of control | T/C [12]: 98 % of control | T/C [13]: 108 % of control

CC(/C=C/c1ccccc1)=Nc1ccccc1
T/C [7]: 109 % of control | T/C [8]: 101 % of control | T/C [9]: 97 % of control | T/C [10]: 99 % of control | T/C [11]: 105 % of control

O=C(O)C1CC(O)CN1 (stereo unspecified)
T/C [21]: 98 % of control | T/C [15]: 91 % of control | T/C [16]: 91 % of control | T/C [17]: 114 % of control | T/C [18]: 109 % of control

COc1cc2c3c(cccc3c1)C(=O)N(CCN(C)C)C2=O
T/C [22]: 101 % of control | T/C [23]: 110 % of control | T/C (dose: 20.0 mg/kg/injection, vehicle: saline with Tween-80): 122 % of control | T/C (dose: 40.0 mg/kg/injection, vehicle: saline with Tween-80): 101 % of control | T/C (dose: 80.0 mg/kg/injection, vehicle: saline with Tween-80): 119 % of control

O=C1C=C[C@H](O)[C@@]2(CO)O[C@@H]12
T/C (dose: 0.31 mg/kg/injection, vehicle: saline with Tween-80): 101 % of control | T/C (dose: 0.62 mg/kg/injection, vehicle: saline with Tween-80): 101 % of control | T/C (dose: 1.25 mg/kg/injection, vehicle: saline with Tween-80): 114 % of control | T/C (dose: 2.5 mg/kg/injection, vehicle: saline with Tween-80): 98 % of control | T/C [22]: 102 % of control | T/C [23]: 93 % of control

CO[C@@]12[C@H](COC(N)=O)C3=C(C(=O)C(C)=C(N)C3=O)N1C[C@@H]1N[C@@H]12
T/C [24]: 101 % of control | T/C [25]: 103 % of control and 109 % of control | T/C (dose: 0.5 mg/kg/injection, vehicle: saline): 118 % of control | T/C (dose: 1.0 mg/kg/injection, vehicle: saline): 107 % of control

CC1=CC(=Nc2ccc(N(CCCl)CCCl)cc2)C=C(C)C1=O
T/C [7]: 109 % of control | T/C [8]: 116 % of control

CCC1=C2C(=O)c3ccccc3C2=C(C)S(=O)(=O)O1
T/C [14]: 104 % of control | T/C [6]: 99 % of control | T/C [7]: 97 % of control | T/C [8]: 107 % of control

CC(=O)[C@]1(O)Cc2c(O)c3c(c(O)c2[C@@H](OC2CC(N)C(O)C(C)O2)C1)C(=O)c1c(O)cccc1C3=O (stereo partly specified)
T/C (dose: 0.03 mg/kg/injection, vehicle: saline): 107 % of control | T/C (dose: 0.06 mg/kg/injection, vehicle: saline): 96 % of control | T/C [24]: 108 % of control | T/C [25]: 117 % of control

CN(C)C1C(=O)C(C(=O)NP(=O)(NCCCO)N(CCCl)CCCl)=C(O)C2(O)C(=O)C3=C(O)c4c(O)cccc4C(C)(O)C3CC12 (stereo unspecified)
T/C [8]: 104 % of control | T/C [9]: 119 % of control | T/C [10]: 93 % of control

BrC1CC(Br)c2c1c1c(c3c2C(Br)CC3Br)C(Br)CC1Br (stereo unspecified)
T/C [7]: 99 % of control | T/C [8]: 103 % of control | T/C [9]: 92 % of control | T/C [11]: 121 % of control | T/C [19]: 112 % of control

CCC1CC2CN(CCc3c([nH]c4ccccc34)C(C(=O)OC)(c3cc4c(cc3OC)N(C)C3C(O)(C(=O)OC)C(OC(C)=O)C5(CC)C=CCN6CCC43C65)C2)C1 (stereo unspecified)
T/C [1]: 103 % of control | T/C [2]: 102 % of control | T/C [3]: 108 % of control | T/C [4]: 103 % of control | T/C [5]: 112 % of control | T/C (dose: 2.0 mg/kg/injection, vehicle: suspension in saline): 102 % of control

CCCCOCN(COCCCC)C12CC3CC(CC(C3)C1)C2
T/C [7]: 101 % of control | T/C [8]: 111 % of control | T/C [9]: 97 % of control | T/C [10]: 106 % of control | T/C [11]: 100 % of control

O=NN(CCCl)C(=O)NC1CCCCC1
T/C (dose: 1.0 mg/kg/injection, vehicle: Klucel (hydroxypropylcellulose) (HPC)): 98 % of control | T/C (dose: 2.0 mg/kg/injection, vehicle: Klucel (hydroxypropylcellulose) (HPC)): 112 % of control and 120 % of control | T/C (dose: 2.0 mg/kg/injection, vehicle: other): 108 % of control | T/C (dose: 4.0 mg/kg/injection, vehicle: other): 100 % of control | T/C (dose: 8.0 mg/kg/injection, vehicle: Klucel (hydroxypropylcellulose) (HPC)): 295 % of control and 314 % of control | T/C (dose: 8.0 mg/kg/injection, vehicle: other): 100 % of control | T/C (dose: 16.0 mg/kg/injection, vehicle: other): 119 % of control | T/C (dose: 32.0 mg/kg/injection, vehicle: other): 166 % of control

Reference: PubChem BioAssay AID276 (DTP/NCI, 2004)
